This note sets out measurements from US20210405025A1, “IDENTIFYING COMPOUNDS FOR TREATING CANCER AND USE THEREOF” (THE UAB RESEARCH FOUNDATION, priority 2018, published 2021).

Structures can show the parent of a compound that is named as a salt.

The test deals with relapsed AML cells. As to the kind of experiment: Drug sensitivity assay, 1,536-well, 3-day culture with individual approved drugs at 10 μM, viability by alamarBlue. It counts as cell-based, human. As to conditions: number of relapsed AML cases out of 18 tested with >70% cell death; 10 μM, 3-day culture. The procedure: Drug sensitivity assays were performed using a 1,536-well platform where all cells and reagents were deposited in wells using an acoustic liquid handling unit that is highly accurate for dispensing of nanoliter volumes of liquid. […] After dispensing the cells into the wells, an independent drug at a known concentration is added to each well and incubated with the cells. After three days, the percentage of live cells in each well is determined to assess the killing efficiency of each compound. […] Cell viability assays are known to those of skill in the art. See, for example, Pemovska et al., Individualized systems medicine strategy to tailor treatments for patients with chemorefractory acute myeloid leukemia. Cancer Discovery 3:1416-1429, 2013; Pabst et al., Identification of small molecules that support human leukemia stem cell activity ex vivo. Nature Methods 11:436-442, 2014; Baccelli et al., A novel approach for the identification of efficient combination therapies in primary human acute myeloid leukemia specimens. Blood Cancer Journal 7:e529, 2017. In studies described herein, the 1,536-well format was utilized, which allowed for use of four times fewer cells as well as less drug and media components due to the small assay volume of 5 microliters. […] Other compounds like CellTiter-Glo (Promega, Madison, Wis.) are equally appropriate reagents for determining cell viability.
Conditions for the drug screening assays were as described in Pabst et al., Identification of small molecules that support human leukemia stem cell activity ex vivo, Nature Methods 11:436-442, 2014). Using this protocol, cells were cultured in Iscove's Modified Dulbecco's Medium (IMDM), 15% BIT (bovine serum albumin, insulin, transferrin; Stem Cell Technologies 09500 (Vancouver, Calif.)), 100 ng/ml SCF (Shenandoah 100-04 (Warwick, Pa.)), 50 ng/ml FLT3L (Shenandoah 100-21), 20 ng/ml IL-3 (Shenandoah 100-80), 20 ng/ml G-CSF (Shenandoah 100-72), 10^-4 M β-mercaptoethanol, gentamicin (50 μg/ml) and ciprofloxacin (10 μg/ml).
Cells were removed from liquid nitrogen and placed in a 37° C. bath, just until thawed. For 1,536-well screens utilizing 6,000 wells about 100 million cells were thawed. The volume was doubled with pre-warmed culture media and placed on ice for about one to two minutes. The cells were brought to a final volume of about 8 to 10 mL before spinning down at 1,100 rpm for 5 min at 10° C. The pelleted cells were resuspended in 10 mL of culture media and plated in a tissue-culture treated T75 flask at a density of 1 to 2 million cells/ml. The cells were cultured overnight prior to fluorescence-activated cell sorting of viable cells on the following day.
After cells were cultured overnight, a cell scraper was used to remove any cells that adhered to the plastic. The cells were gently pipetted up and down to break up aggregates. Then, the entire volume was transferred to a 50 mL conical tube through a 70 micron cell strainer to remove cell clumps. The T75 flask was rinsed and scraped with about 10 mL HBSS and transferred to the same 50 mL conical tube through the strainer. The harvested cells were spun down at 1,100 rpm for 5 min at 10° C. The cells were then resuspendd in about 300-500 microliters FACS buffer (HBSS+2% FBS+1× propidium iodide) and transferred to a FACS tube. The tube was placed on ice and viable cells that are forward- and side-scatter gated on viable myeloid blasts were sorted by FACS (the scatter gate should exclude small lymphocytes, large myeloid cells, and debris). After sorting the required number of viable cells, the cells were spun down at 1,100 rpm for 5 min at 10° C. and subsequently resuspended at 4,000-4,500 cells per 5 microliter volume of complete culture media with growth factors and penicillin/streptomycin.
A general note: Alamar Blue is a resazurin reagent that responds to reducing activity.

`CC(=O)Nc1ccc([C@H](C)C(=O)Nc2ncc(C(C)C)s2)cc1` [PHA-690509]: the “#Cases >70% cell death” value amounted to 11.

`CCN(CC)CCNC(=O)c1c(C)[nH]c(/C=C2\C(=O)Nc3ccc(F)cc32)c1C` [SUNITINIB MALATE]: the “#Cases >70% cell death” value was found to be 15.

Consider `COc1cc2c(cc1OC)CN(CCc1ccc(NC(=O)c3cccc4c(=O)c5cccc(OC)c5[nH]c34)cc1)CC2`, for which the “#Cases >70% cell death” value came out at 2.

For `CN1CCc2c(c3ccccc3n2Cc2ccccc2)C1` [MEBHYDROLIN], the “#Cases >70% cell death” value was determined as 1.

Consider `COc1ccc2nc3cc(Cl)ccc3c(Nc3cc(CN4CCCC4)c(O)c(CN4CCCC4)c3)c2n1.O=P(O)(O)O.O=P(O)(O)O.O=P(O)(O)O.O=P(O)(O)O` [PYRONARIDINE TETRAPHOSPHATE], for which the “#Cases >70% cell death” value is on record as 9.

Turning to `CO[C@H]1C(=O)[C@]2(C)[C@@H](OC)C[C@H]3OC[C@@]3(OC(C)=O)[C@H]2[C@H](OC(=O)c2ccccc2)[C@]2(O)C[C@H](OC(=O)[C@H](O)[C@@H](NC(=O)OC(C)(C)C)c3ccccc3)C(C)=C1C2(C)C` [CABAZITAXEL], the “#Cases >70% cell death” value came out at 5.

Take `S=c1nc[nH]c2nc[nH]c12` [MERCAPTOPURINE]: the “#Cases >70% cell death” value was found to be 10.

Take `CN1CCC(CNc2ccc3ncc(-c4cccc(OC(F)(F)F)c4)n3n2)CC1` [SGI-1776]: the “#Cases >70% cell death” value is on record as 14.

In the case of `CCC(C)(C)c1ccc(CC(C)CN2C[C@@H](C)O[C@@H](C)C2)cc1` (stereo partly shown) [AMOROLFINE], the “#Cases >70% cell death” value turned out to be 9.

`COC(=O)Nc1nc2ccc(C(=O)c3ccccc3)cc2[nH]1` [MEBENDAZOLE]: the “#Cases >70% cell death” value worked out at 5.

On to `Clc1ccc(C(Cn2ccnc2)OCc2csc3c(Cl)cccc23)c(Cl)c1` (stereo not shown) [SERTACONAZOLE], for which the “#Cases >70% cell death” value is on record as 2.

Consider `CC[C@]1(O)C[C@@H]2CN(CCc3c([nH]c4ccccc34)[C@@](C(=O)OC)(c3cc4c(cc3OC)N(C)[C@H]3[C@@](O)(C(N)=O)[C@H](O)[C@]5(CC)C=CCN6CC[C@]43[C@@H]65)C2)C1`, for which the “#Cases >70% cell death” value worked out at 9.

For the compound “MONENSIN SODIUM [MONENSIN SODIUM (MONENSIN A IS SHOWN)]”, the “#Cases >70% cell death” value is 7.

For `COc1cc2c(cc1O)CC[C@@H]1[C@@H]2CC[C@]2(C)[C@@H](O)CC[C@@H]12` [2-METHOXYESTRADIOL], the “#Cases >70% cell death” value is recorded as 2.

For the compound `CCCCCCCCNC(C)C(O)c1ccc(SC(C)C)cc1` (stereo not shown) [SULOCTIDIL], the “#Cases >70% cell death” value is 12.

Take `CCn1cc(C(=O)O)c(=O)c2cnc(N3CCCC3)nc21` [PIROMIDIC ACID]: the “#Cases >70% cell death” value is 5.

`CC(C)(C)c1nc(-c2cccc(NS(=O)(=O)c3c(F)cccc3F)c2F)c(-c2ccnc(N)n2)s1` [DABRAFENIB]: the “#Cases >70% cell death” value was determined as 4.

`Clc1ccc(CCC(Cn2ccnc2)Sc2c(Cl)cccc2Cl)cc1` (stereo not shown) [BUTOCONAZOLE]: the “#Cases >70% cell death” value worked out at 1.

Consider `CN(Cc1cc(Br)cc(Br)c1N)C1CCCCC1` [BROMHEXINE], for which the “#Cases >70% cell death” value is 1.

For the compound `CN[C@H](C(=O)N[C@H](C(=O)N(C)[C@H](/C=C(\C)C(=O)O)C(C)C)C(C)(C)C)C(C)(C)c1ccccc1` [TALTOBULIN], the “#Cases >70% cell death” value came to 14.

As for `Nc1nc(F)nc2c1ncn2[C@@H]1O[C@H](COP(=O)(O)O)[C@@H](O)[C@@H]1O` [FLUDARABINE PHOSPHATE], the “#Cases >70% cell death” value is listed as 4.

For the compound `O=C(Nc1ccccc1Br)N[C@@H]1CCN(c2ccc(C(F)(F)F)cn2)C1` [SB-705498], the “#Cases >70% cell death” value came to 1.

For `C[C@@H]1O[C@@H](O[C@@H]2C=C3CC[C@@H]4[C@H](CC[C@]5(C)[C@@H](c6ccc(=O)oc6)CC[C@]45O)[C@@]3(C)CC2)[C@H](O)[C@H](O)[C@H]1O` [PROSCILLARIDIN], the “#Cases >70% cell death” value was 18.

For the compound `CCCC1O[C@@H]2C[C@H]3[C@@H]4CCC5=CC(=O)C=C[C@]5(C)[C@H]4[C@@H](O)C[C@]3(C)[C@]2(C(=O)CO)O1` (stereo partly shown) [BUDESONIDE], the “#Cases >70% cell death” value is listed as 2.

For `C1CCC(C(CC2CCCCN2)C2CCCCC2)CC1` (stereo not shown) [PERHEXILINE MALEATE], the “#Cases >70% cell death” value was found to be 13.

As to `O=C1CC2(CCCC2)CC(=O)N1CCNCC1COc2ccccc2O1` (stereo not shown) [BINOSPIRONE MESYLATE], the “#Cases >70% cell death” value stood at 1.

Consider `Cc1nc2ccccc2n1Cc1ccc(Cl)cc1` [CHLORMIDAZOLE], for which the “#Cases >70% cell death” value worked out at 1.

On to `O=C(O)c1ccccc1C(=O)Nc1ccc(S(=O)(=O)Nc2nccs2)cc1` [PHTHALYLSULFATHIAZOLE], for which the “#Cases >70% cell death” value is 1.

On to `COc1cc(CNC(=O)CCCC/C=C/C(C)C)ccc1O` [CAPSAICIN], for which the “#Cases >70% cell death” value came out at 1.

`CC(=O)OCC(=O)[C@@]12N=C(C)O[C@@H]1C[C@H]1[C@@H]3CCC4=CC(=O)C=C[C@]4(C)[C@H]3[C@@H](O)C[C@@]12C` [DEFLAZACORT]: the “#Cases >70% cell death” value is on record as 8.

On to `Cc1ccc(C(=O)c2cc(O)c(O)c([N+](=O)[O-])c2)cc1` [TOLCAPONE], for which the “#Cases >70% cell death” value came to 1.

For `CC(C)(C)[C@]1(O)CCN2C[C@H]3c4ccccc4CCc4cccc(c43)[C@@H]2C1.Cl` [(−)-BUTACLAMOL HCL], the “#Cases >70% cell death” value was found to be 3.

In the case of `C[C@]12CC[C@@H]3c4ccc(OS(=O)(=O)O)cc4CC[C@H]3[C@@H]1CCC2=O` [ESTROPIPATE], the “#Cases >70% cell death” value is on record as 1.

As to `CN1CCN(c2ncc(-c3cc(Cl)cc(Cl)c3Cl)c(N)n2)CC1` [SIPATRIGINE], the “#Cases >70% cell death” value is given as 1.

Take `COCc1c(C(C)C)nc(C(C)C)c(/C=C/[C@@H](O)C[C@@H](O)CC(=O)O)c1-c1ccc(F)cc1` [CERIVASTATIN]: the “#Cases >70% cell death” value is listed as 17.

With `COC(=O)Nc1nc2ccc(Sc3ccccc3)cc2[nH]1` [FENBENDAZOLE], the “#Cases >70% cell death” value was 5.

In the case of `Cc1cc2nc3ccc(N(C)C)cc3[s+]c2cc1N` [TOLONIUM CHLORIDE], the “#Cases >70% cell death” value stood at 11.

Regarding `CCN(CC)CCOc1ccc(C(=C(Cl)c2ccccc2)c2ccccc2)cc1` [CLOMIFENE], the “#Cases >70% cell death” value is on record as 10.

On to `c1ccc(-c2ccc(C(c3ccccc3)n3ccnc3)cc2)cc1` (stereo not shown) [BIFONAZOLE], for which the “#Cases >70% cell death” value is 1.

`Oc1c(I)cc(Cl)c2cccnc12` [CLIOQUINOL]: the “#Cases >70% cell death” value came out at 6.

Take `CCCCCCCCOc1ccccc1C(=O)Nc1ccc(C(=O)OCC[N+](C)(CC)CC)cc1` [OTILONIUM BROMIDE]: the “#Cases >70% cell death” value is on record as 4.

With `CCNC1(C(N)=O)CCN(c2ncnc3c2nc(-c2ccccc2Cl)n3-c2ccc(Cl)cc2)CC1` [CP-945], the “#Cases >70% cell death” value is reported as 1.

Take `C[C@@H](NCCCc1cccc(C(F)(F)F)c1)c1cccc2ccccc12` [AMG-073 HCL]: the “#Cases >70% cell death” value was 1.

On to `CCCn1c(=O)c2[nH]c(C34CC5CC(CC3C5)C4)nc2n(CCC)c1=O` [ROLOFYLLINE], for which the “#Cases >70% cell death” value was 1.

With `N#Cc1ccc2[nH]cc(CCCCN3CCN(c4ccc5oc(C(N)=O)cc5c4)CC3)c2c1` [VILAZODONE], the “#Cases >70% cell death” value was 2.

Regarding `Clc1ccc(CSC(Cn2ccnc2)c2ccc(Cl)cc2Cl)cc1` (stereo not shown) [SULCONAZOLE NITRATE], the “#Cases >70% cell death” value is listed as 5.

For `CCOc1ccc2nc3cc(N)ccc3c(N)c2c1` [ETHACRIDINE LACTATE], the “#Cases >70% cell death” value came out at 2.

Turning to `O=C(c1ccc(OCCN2CCCCC2)cc1)c1c(-c2ccc(O)cc2)sc2cc(O)ccc12` [RALOXIFENE], the “#Cases >70% cell death” value is on record as 3.

Consider `CCC(COC(=O)c1cc(OC)c(OC)c(OC)c1)(c1ccccc1)N(C)C` (stereo not shown) [TRIMEBUTINE], for which the “#Cases >70% cell death” value was 1.

Regarding `Fc1ccc(C(c2ccc(F)cc2)N2CCN(C/C=C/c3ccccc3)CC2)cc1` [FLUNARIZINE], the “#Cases >70% cell death” value turned out to be 3.

For the compound `CCn1cc(-c2ccnc3[nH]c(-c4cccc(CN(C)C)c4)cc23)c(-c2ccc(NC(=O)N(C)C)cc2)n1` [GSK1070916], the “#Cases >70% cell death” value turned out to be 11.

As for `OCCN(CCO)c1nc(N2CCCCC2)c2nc(N(CCO)CCO)nc(N3CCCCC3)c2n1` [DIPYRIDAMOLE], the “#Cases >70% cell death” value is recorded as 2.
